The results in this text go back to patent US7888527B2 (University of Virginia Patent Foundation, priority 2004, dated 2011).

The target in one assay is T1, S1P2 receptor (Homo sapiens, UniProt O95136).
T1 construct: expressed in transfected cells; host or cells: HEK293T, transient transfection; membranes
Nature of the assay: [32P]S1P binding assay. To be noted: concentrations up to 10 μM (data not shown). The protocol: (§1) [^32P]-S1P was prepared by incubating sphingosine and [γ-^32P]ATP with cell lysate from HEK293T cells transiently transfected with human sphingosine kinase type 2 DNA. The 200 μl reaction contained 0.025 mM sphingosine, 1 mCi [γ-^32P]ATP (7000 Ci/mmol) and kinase buffer (in mM: Mg(C2H3O2)2 (in 50 mM Tris, pH 7.5)/10, NaF/10, and semicarbizide/2). The reaction was initiated by the addition of 20 μg of cell lysate and incubated at 37° C. for at least 30 minutes. […] The organic layer was isolated and the extraction procedure repeated two additional times with the remaining aqueous fraction. The combined organic fractions were dried under a stream of nitrogen gas and resuspended in aqueous 0.1% fatty acid free BSA.
(§2) Bound ligand was separated from free ligand by rapid filtration and analyzed in a liquid scintillation counter.

A further assay deals with human S1P3 receptor (Homo sapiens, UniProt Q99500). Nature of the assay: [32P]S1P binding assay, HEK293T membranes. To be noted: read-out: pKi S1P3 (converted). Also noted: expressed in transfected cells; host or cells: HEK293T, transient transfection; membranes. Here is the method:
as §1, §2
(§3) Statistical Analysis. The EC50 and IC50 values for all dose response curves were determined by nonlinear regression analysis of all data using the Graphpad Prism© program. The error associated with the data collected is reported as the standard error of the mean (S.E.M).

For another assay, the target named is human S1P1 receptor (Homo sapiens, UniProt P21453). Briefly: [32P]S1P binding assay, HEK293T membranes. Set-up: expressed in transfected cells; host or cells: HEK293T, transient transfection; membranes. As to conditions: read-out: pKi S1P1 (converted). The protocol:
as §1, §2, §3

human S1P3 receptor, sequence (Q99500 whole entry): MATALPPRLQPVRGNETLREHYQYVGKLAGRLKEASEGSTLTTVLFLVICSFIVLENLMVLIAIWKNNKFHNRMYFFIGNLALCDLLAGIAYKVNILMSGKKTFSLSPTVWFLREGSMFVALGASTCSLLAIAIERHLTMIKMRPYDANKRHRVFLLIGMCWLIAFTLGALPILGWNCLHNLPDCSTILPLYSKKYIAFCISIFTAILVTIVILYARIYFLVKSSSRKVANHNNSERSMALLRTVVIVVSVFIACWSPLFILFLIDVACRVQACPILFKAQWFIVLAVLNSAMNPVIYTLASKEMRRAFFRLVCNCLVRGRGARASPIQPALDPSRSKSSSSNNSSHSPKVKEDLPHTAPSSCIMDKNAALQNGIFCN
T1 sequence (O95136 whole entry): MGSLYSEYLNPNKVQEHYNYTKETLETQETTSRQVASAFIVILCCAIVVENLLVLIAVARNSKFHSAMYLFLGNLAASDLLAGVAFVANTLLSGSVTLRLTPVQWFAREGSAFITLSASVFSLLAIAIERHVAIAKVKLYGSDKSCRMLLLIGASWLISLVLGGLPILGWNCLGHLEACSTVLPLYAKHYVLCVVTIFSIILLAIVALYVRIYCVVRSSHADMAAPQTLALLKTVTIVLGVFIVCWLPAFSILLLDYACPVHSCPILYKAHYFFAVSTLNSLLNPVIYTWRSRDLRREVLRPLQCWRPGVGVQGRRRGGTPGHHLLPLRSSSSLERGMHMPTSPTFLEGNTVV
human S1P1 receptor, sequence (P21453 whole entry): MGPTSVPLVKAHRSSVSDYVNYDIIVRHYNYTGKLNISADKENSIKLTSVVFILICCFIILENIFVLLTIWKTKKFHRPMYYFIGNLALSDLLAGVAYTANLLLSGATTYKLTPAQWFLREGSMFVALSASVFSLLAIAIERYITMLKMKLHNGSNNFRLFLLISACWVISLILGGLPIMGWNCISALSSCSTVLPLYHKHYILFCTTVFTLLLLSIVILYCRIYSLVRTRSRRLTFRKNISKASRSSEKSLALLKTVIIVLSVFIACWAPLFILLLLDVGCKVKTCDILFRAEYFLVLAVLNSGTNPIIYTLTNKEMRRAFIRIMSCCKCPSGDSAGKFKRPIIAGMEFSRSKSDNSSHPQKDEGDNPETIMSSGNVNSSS

As for `CCCCCCCCc1cccc(NC(=O)[C@H](N)COP(=O)(O)O)c1` [VPC23019], the “Influence on binding of [32P]S1P to the S1P2 receptor” value at S1P2 receptor is “did not influence the binding”. The Ki was 1170 nM on human S1P3 receptor and 13.8 nM at human S1P1 receptor.
